Test results published in PubChem BioAssay AID330 (DTP/NCI, 2004).
“And” between values parts separate entries of the source, which are not always exact repeats. Equal entries are not always repeated. Inconclusive results and toxic doses are left out. Peptide text beside a SMILES is read from it. * marks the point of attachment. Cbz = O=C(OCc1ccccc1)*

Test system: P388 leukemia ip, CD2F1 mice, survival T/C
Assay: NCI In Vivo Anticancer Drug Screen. Data for tumor model P388 Leukemia (intraperitoneal) in CD2F1 (CDF1) mice
Settings: endpoint: median survival time, higher = longer survival
Method in brief: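 Mice carrying the transplanted tumor received test compound or vehicle. Survival was recorded in each group, and the value is the treated-group measurement divided by that of the vehicle-treated control group.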

[1] = dose: 50.0 mg/kg/injection, schedule: Q01DX005 (ip), vehicle: Klucel (hydroxypropylcellulose) (HPC)
[2] = dose: 100.0 mg/kg/injection, schedule: Q01DX005 (ip), vehicle: Klucel (hydroxypropylcellulose) (HPC)
[3] = dose: 200.0 mg/kg/injection, schedule: Q01DX005 (ip), vehicle: Klucel (hydroxypropylcellulose) (HPC)
[4] = dose: 100.0 mg/kg/injection, schedule: Q01DX001 (ip), vehicle: saline with Tween-80
[5] = dose: 200.0 mg/kg/injection, schedule: Q01DX001 (ip), vehicle: saline with Tween-80
[6] = dose: 400.0 mg/kg/injection, schedule: Q01DX001 (ip), vehicle: saline with Tween-80
[7] = dose: 50.0 mg/kg/injection, schedule: Q01DX005 (ip), vehicle: saline with Tween-80
[8] = dose: 100.0 mg/kg/injection, schedule: Q01DX005 (ip), vehicle: saline with Tween-80
[9] = dose: 200.0 mg/kg/injection, schedule: Q01DX005 (ip), vehicle: saline with Tween-80
[10] = dose: 12.5 mg/kg/injection, schedule: Q01DX009 (ip), vehicle: saline with Tween-80
[11] = dose: 25.0 mg/kg/injection, schedule: Q01DX009 (ip), vehicle: saline with Tween-80
[12] = dose: 60.0 mg/kg/injection, schedule: Q01DX005 (ip), vehicle: saline with Tween-80
[13] = dose: 120.0 mg/kg/injection, schedule: Q01DX005 (ip), vehicle: saline with Tween-80
[14] = dose: 60.0 mg/kg/injection, schedule: Q01DX005 (ip), vehicle: saline
[15] = dose: 120.0 mg/kg/injection, schedule: Q01DX005 (ip), vehicle: saline
[16] = dose: 240.0 mg/kg/injection, schedule: Q01DX005 (ip), vehicle: saline
[17] = dose: 6.25 mg/kg/injection, schedule: Q01DX009 (ip), vehicle: saline with Tween-80
[18] = dose: 50.0 mg/kg/injection, schedule: Q01DX009 (ip), vehicle: saline with Tween-80

With `O=C(Nc1ccc(Cl)cc1)Nc1ccc(Cl)nn1` the T/C (dose: 3.12 mg/kg/injection, schedule: Q04DX002 (ip), vehicle: Klucel (hydroxypropylcellulose) (HPC)) was 101 % of control, the T/C (dose: 6.25 mg/kg/injection, schedule: Q04DX002 (ip), vehicle: Klucel (hydroxypropylcellulose) (HPC)) was 102 % of control and the T/C (dose: 12.5 mg/kg/injection, schedule: Q04DX002 (ip), vehicle: Klucel (hydroxypropylcellulose) (HPC)) was 98 % of control. For the same molecule, the T/C (dose: 25.0 mg/kg/injection, schedule: Q04DX002 (ip), vehicle: Klucel (hydroxypropylcellulose) (HPC)) was 115 % of control, the T/C (dose: 50.0 mg/kg/injection, schedule: Q04DX002 (ip), vehicle: Klucel (hydroxypropylcellulose) (HPC)) was 90 % of control and the T/C (dose: 100.0 mg/kg/injection, schedule: Q04DX002 (ip), vehicle: Klucel (hydroxypropylcellulose) (HPC)) was 88 % of control and 95 % of control.

In the case of `C(=Nc1ccc2ccc3cccc4ccc1c2c34)c1ccncc1`, the T/C (dose: 25.0 mg/kg/injection, schedule: Q01DX005 (ip), vehicle: Klucel (hydroxypropylcellulose) (HPC)) is reported as 102 % of control, the T/C [1] is reported as 100 % of control and the T/C [2] is reported as 100 % of control. For the same molecule, the T/C [3] was 92 % of control.

For `COC(=O)C(=O)c1cc(=O)[nH]c(NC(C)=O)n1`, the T/C [4] was 107 % of control, the T/C [5] was 101 % of control and the T/C [6] was 107 % of control.

`O=[N+]([O-])C(Cc1ccccc1)Cc1ccccc1` was tested, and the T/C [7] was 98 % of control, the T/C [8] was 103 % of control and the T/C [9] was 97 % of control.

For `O=[N+]([O-])c1ccc(CSSCc2ccc([N+](=O)[O-])cc2)cc1`, the T/C [1] was 98 % of control, the T/C [2] was 100 % of control and the T/C [3] was 105 % of control.

`Cc1ncc(CSC(=N)N)n1Cc1ccccc1` was tested, and the T/C (dose: 8.5 mg/kg/injection, schedule: Q01DX009 (ip), vehicle: saline) was 115 % of control.

With `CCC/C(=N/NC(N)=O)C(OC)OC` the T/C (dose: 37.5 mg/kg/injection, schedule: Q01DX009 (ip), vehicle: saline) was 92 % of control and the T/C (dose: 75.0 mg/kg/injection, schedule: Q01DX009 (ip), vehicle: saline) was 90 % of control.

For `Cc1ccccc1N=Nc1c(O)n(-c2ccccc2Cl)c(=S)n(-c2ccccc2)c1=O`, the T/C (dose: 25.0 mg/kg/injection, schedule: Q01DX001 (ip), vehicle: Klucel (hydroxypropylcellulose) (HPC)) was 102 % of control, the T/C (dose: 50.0 mg/kg/injection, schedule: Q01DX001 (ip), vehicle: Klucel (hydroxypropylcellulose) (HPC)) was 104 % of control and the T/C (dose: 100.0 mg/kg/injection, schedule: Q01DX001 (ip), vehicle: Klucel (hydroxypropylcellulose) (HPC)) was 101 % of control.

For `O=c1[nH]c2cc3c(cc2n2cccc12)oc1ccccc13`, the T/C (dose: 25.0 mg/kg/injection, schedule: Q01DX005 (ip), vehicle: saline with Tween-80) was 98 % of control, the T/C [7] was 100 % of control and the T/C [8] was 100 % of control. The T/C [9] was 100 % of control.

`COc1ccccc1-n1cc[n+](C)c1/C=N/O` was tested, and the T/C [10] was 86 % of control, the T/C [11] was 90 % of control and the T/C (dose: 50.0 mg/kg/injection, schedule: Q01DX009 (ip), vehicle: saline) was 99 % of control.

With `CCCCOCC(C)O` (centres undefined) the T/C (dose: 100.0 mg/kg/injection, schedule: Q04DX003 (ip), vehicle: saline) was 109 % of control, the T/C (dose: 200.0 mg/kg/injection, schedule: Q04DX003 (ip), vehicle: saline) was 100 % of control and the T/C (dose: 400.0 mg/kg/injection, schedule: Q04DX003 (ip), vehicle: saline) was 90 % of control.

`CNC(=O)OCc1c(COC(=O)NC)c(C)n(-c2ccc(OC)cc2)c1C` was tested, and the T/C (dose: 12.5 mg/kg/injection, schedule: Q01DX009 (ip), vehicle: Klucel (hydroxypropylcellulose) (HPC)) was 152 % of control, the T/C (dose: 25.0 mg/kg/injection, schedule: Q01DX009 (ip), vehicle: Klucel (hydroxypropylcellulose) (HPC)) was 153 % of control and the T/C (dose: 50.0 mg/kg/injection, schedule: Q01DX009 (ip), vehicle: Klucel (hydroxypropylcellulose) (HPC)) was 171 % of control.

In the case of `CC(NC(=O)OCc1ccccc1)C(=O)NC(CO)C(N)=O` (stereo not drawn) (Cbz-Ala-Ser-NH2; configuration not given here), the T/C [1] is reported as 97 % of control, the T/C [2] is reported as 98 % of control and the T/C [3] is reported as 102 % of control.

For `Cc1cc(=O)n(-c2ccc([N+](=O)[O-])cc2)c(C)c1C(=O)O`, the T/C [7] was 98 % of control, the T/C [8] was 103 % of control and the T/C [9] was 106 % of control.

In the case of `CSc1nc(SC)c2nc(SC)sc2n1`, the T/C (dose: 50.0 mg/kg/injection, schedule: Q01DX001 (ip), vehicle: saline with Tween-80) is reported as 90 % of control, the T/C [4] is reported as 88 % of control and 90 % of control and the T/C [5] is reported as 90 % of control. The T/C [6] was 87 % of control.

With `Fc1cccc(C(Nc2nncs2)Nc2nncs2)c1F` the T/C [7] was 99 % of control, the T/C [8] was 93 % of control and the T/C [9] was 93 % of control.

With `CC(=O)OCC1OC(n2ccc3c(=O)[nH]c(=O)[nH]c32)C(OC(C)=O)C(OC(C)=O)C1OC(C)=O` (centres undefined) the T/C [4] was 104 % of control, the T/C [5] was 99 % of control and the T/C [6] was 100 % of control.

`CC(C(=O)O)c1cn(Cc2ccccc2)c2ccccc12` (centres undefined) was tested, and the T/C [12] was 100 % of control, the T/C [13] was 102 % of control and the T/C (dose: 240.0 mg/kg/injection, schedule: Q01DX005 (ip), vehicle: saline with Tween-80) was 96 % of control.

In the case of `CC(=O)/C(=C\c1cccs1)C(=O)CCN(C)C`, the T/C [14] is reported as 106 % of control and 111 % of control, the T/C [15] is reported as 113 % of control and 122 % of control and the T/C [16] is reported as 91 % of control.

With `CCOC(=O)c1cc(=O)n(C)c2ccc(OCC)cc12` the T/C (dose: 100.0 mg/kg/injection, schedule: Q01DX009 (ip), vehicle: saline with Tween-80) was 90 % of control, the T/C (dose: 200.0 mg/kg/injection, schedule: Q01DX009 (ip), vehicle: saline with Tween-80) was 95 % of control and the T/C (dose: 400.0 mg/kg/injection, schedule: Q01DX009 (ip), vehicle: saline with Tween-80) was 90 % of control.

In the case of `COc1ccc2c(c1)CCC(c1nc3ccc(C)cc3[nH]c1=O)C2=O` (centres undefined), the T/C [12] is reported as 103 % of control and the T/C [13] is reported as 108 % of control.

For `CC(C)C(=O)c1ccco1`, the T/C (dose: 3.13 mg/kg/injection, schedule: Q01DX009 (ip), vehicle: saline with Tween-80) was 90 % of control, the T/C [17] was 100 % of control and the T/C [10] was 100 % of control.

`Nc1ncnc2c1ncn2C1C=C(CO)C(O)C1O` (centres undefined) was tested, and the T/C (dose: 1.0 mg/kg/injection, schedule: Q01DX009 (ip), vehicle: saline) was 163 % of control, the T/C (dose: 2.0 mg/kg/injection, schedule: Q01DX009 (ip), vehicle: saline) was 163 % of control and the T/C (dose: 4.0 mg/kg/injection, schedule: Q01DX009 (ip), vehicle: Klucel (hydroxypropylcellulose) (HPC)) was 161 % of control. The T/C (dose: 4.0 mg/kg/injection, schedule: Q01DX009 (ip), vehicle: saline) was 156 % of control, the T/C (dose: 8.0 mg/kg/injection, schedule: Q01DX009 (ip), vehicle: Klucel (hydroxypropylcellulose) (HPC)) was 153 % of control and 161 % of control and the T/C (dose: 8.0 mg/kg/injection, schedule: Q01DX009 (ip), vehicle: saline) was 152 % of control and 182 % of control.

For `[O-]c1ccccc1C=NCCN1CC1.[O-]c1ccccc1C=NCCN1CC1.[Zn+2]`, the T/C [17] was 91 % of control, the T/C [10] was 97 % of control and the T/C [11] was 100 % of control.

In the case of `CC1(C)CN(C2CCCCC2)CN2C1OCC2(C)C` (centres undefined), the T/C (dose: 80.0 mg/kg/injection, schedule: Q01DX009 (ip), vehicle: saline with Tween-80) is reported as 117 % of control.

With `NC(CCSCc1ccc(N(CCCl)CCCl)cc1)C(=O)O` (centres undefined) the T/C (dose: 3.13 mg/kg/injection, schedule: Q04DX003 (ip), vehicle: saline with Tween-80) was 154 % of control, the T/C [17] was 118 % of control and the T/C (dose: 6.25 mg/kg/injection, schedule: Q04DX003 (ip), vehicle: saline with Tween-80) was 163 % of control. The T/C [10] was 122 % of control, the T/C (dose: 12.5 mg/kg/injection, schedule: Q04DX003 (ip), vehicle: saline with Tween-80) was 190 % of control and the T/C [11] was 163 % of control and 227 % of control. The T/C (dose: 25.0 mg/kg/injection, schedule: Q04DX003 (ip), vehicle: saline with Tween-80) was 181 % of control, the T/C [18] was 95 % of control and the T/C (dose: 50.0 mg/kg/injection, schedule: Q04DX003 (ip), vehicle: saline with Tween-80) was 263 % of control. For the same molecule, the T/C (dose: 100.0 mg/kg/injection, schedule: Q04DX003 (ip), vehicle: saline with Tween-80) was 222 % of control and 231 % of control.

In the case of `O=C1NCC(=O)N2CCCC12` (centres undefined), the T/C [14] is reported as 99 % of control, the T/C [15] is reported as 100 % of control and the T/C [16] is reported as 107 % of control.

In the case of `N#C/C(N)=C(/N)C#N`, the T/C [10] is reported as 100 % of control and 107 % of control, the T/C [11] is reported as 102 % of control and 111 % of control and the T/C [18] is reported as 104 % of control and 117 % of control and 124 % of control.
